# From ChEMBL document CHEMBL1201862, “PubChem BioAssay data set” (2004)
# Activity calls are given as the source filed them.
# Experiments:
# [1] = target: Ion channel NompC (Danio rerio, UniProt Q7T1G6); test: Fluorescence counterscreen assay for TRPML3 agonists: dose response cell-based high-throughput screening assay to identify agonists of the transient receptor potential channel N1 (TRPN1). [Related pubchem assays: 1526, 1424, 1448 ]; format: functional
# [2] = target: Mucolipin-3 (Homo sapiens, UniProt Q8TDD5); test: Dose response cell-based high-throughput screening assay for agonists of the transient receptor potential channel ML3 (TRPML3). [Related pubchem assays: 1526, 1424, 1448 ]; format: functional
# [3] = target: T1, Bcl-2-like protein 10 (Homo sapiens, UniProt Q9HD36); test: Biochemical TR3 FP assay of Bcl-B inhibitor potency, EC50 (AID 1243); format: functional
# T1 sequence (Q9HD36 whole entry): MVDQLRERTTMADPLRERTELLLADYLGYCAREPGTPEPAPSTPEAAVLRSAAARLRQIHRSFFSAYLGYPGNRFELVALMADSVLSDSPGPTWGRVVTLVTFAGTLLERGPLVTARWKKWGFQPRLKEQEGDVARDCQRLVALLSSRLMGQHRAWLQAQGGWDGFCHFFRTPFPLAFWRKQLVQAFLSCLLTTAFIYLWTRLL
# [4] = target: T2, Tyrosine-protein phosphatase non-receptor type 7 (Homo sapiens, UniProt P35236); format: functional
# T2 sequence (P35236 whole entry): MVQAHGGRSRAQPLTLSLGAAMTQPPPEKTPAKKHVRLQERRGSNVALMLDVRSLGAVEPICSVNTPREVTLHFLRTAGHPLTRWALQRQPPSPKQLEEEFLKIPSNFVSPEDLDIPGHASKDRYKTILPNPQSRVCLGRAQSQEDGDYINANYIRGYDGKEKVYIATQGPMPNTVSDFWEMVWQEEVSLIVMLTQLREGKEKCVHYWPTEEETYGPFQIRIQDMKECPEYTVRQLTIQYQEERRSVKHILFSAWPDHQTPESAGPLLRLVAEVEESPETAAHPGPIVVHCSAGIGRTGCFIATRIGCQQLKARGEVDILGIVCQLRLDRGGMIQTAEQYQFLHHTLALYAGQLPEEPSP
# [5] = target: T3, Dual specificity protein phosphatase 6 (Rattus norvegicus, UniProt Q64346); format: functional
# T3 sequence (Q64346 whole entry): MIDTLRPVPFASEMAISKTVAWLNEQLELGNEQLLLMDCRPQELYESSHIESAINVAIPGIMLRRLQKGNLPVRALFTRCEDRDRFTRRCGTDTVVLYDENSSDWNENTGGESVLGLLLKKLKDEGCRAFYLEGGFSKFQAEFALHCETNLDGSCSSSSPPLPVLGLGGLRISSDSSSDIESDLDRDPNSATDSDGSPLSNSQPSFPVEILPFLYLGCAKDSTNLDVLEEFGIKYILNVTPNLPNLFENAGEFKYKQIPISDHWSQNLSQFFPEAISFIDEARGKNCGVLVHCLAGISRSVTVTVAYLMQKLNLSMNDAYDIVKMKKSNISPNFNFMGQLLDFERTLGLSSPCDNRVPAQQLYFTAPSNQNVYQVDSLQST
# [6] = target: T3, Dual specificity protein phosphatase 6
# [7] = target: Glyceraldehyde-3-phosphate dehydrogenase (Homo sapiens, UniProt P04406)
# [8] = target: Beta-2 adrenergic receptor (Homo sapiens, UniProt P07550); test: beta2AR agonists driving receptor internalization, dose response, cell-based, FAP fluorogen, flow cytometry, cherry pick 1 (AID 588763); format: functional
# [9] = target: Peroxisome proliferator-activated receptor gamma/Nuclear receptor coactivator 3 (Homo sapiens, UniProt P37231); format: functional;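 also: agonist potency for raising coactivator recruitment to the receptor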
# [10] = target: Peroxisome proliferator-activated receptor gamma/Nuclear receptor coactivator 1 (Homo sapiens, UniProt P37231); format: functional;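 also: agonist potency as compounds enhance coactivator SRC-1 recruitment to PPARgamma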
# [11] = target: Peroxisome proliferator-activated receptor gamma/Nuclear receptor coactivator 2 (Homo sapiens, UniProt P37231); format: functional;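 also: agonist potency for raising coactivator recruitment to the receptor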
# [12] = Shn3 3'UTR reporter inhibitors, dose response, cell-based, Clone20 osteoblasts, firefly luciferase, cherry-picked (AID 624132); format: functional;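 also: firefly luciferase luminescence from reporter carrying the Shn3 3'UTR in osteoblasts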
# [13] = growth suppression of beta-catenin-knockout colon cells, dose response, cell-based, HCT116, human colon tumor (AID 1045); format: functional;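 also: HCT116 colon tumor cells with beta catenin knocked out; cells exposed to compound for 60 hours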
# [14] = growth suppression of PTEN-null colon cells, dose response, cell-based, HCT116 PTEN knockout (AID 1047); format: functional;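 also: HCT116 colon tumor cells with PTEN knocked out; cells exposed to compound for 60 hours before readout; potency for loss of cell viability measured by luminescence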
# [15] = control 3'UTR Renilla luciferase suppression, dose response, counter-screen for Shn3 inhibitor project, cell-based, Clone20-Shn3RL, cherry-picked (AID 624133); format: functional
# [16] = target: Scavenger receptor class B member 1 (Mus musculus, UniProt Q61009); test: inhibitors of SR-BI mediated HDL lipid uptake, dose response, ldlA[mSR-BI] cells, fluorescence, cherry pick (AID 493194); format: functional, cell-based;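 also: cellular uptake of fluorescent DiI-labeled HDL measured as cell fluorescence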
# [17] = HepG2 cell cytotoxicity, dose response, cytotoxicity control for Shn3 inhibitor project, CellTiter-Glo, cherry-picked (AID 624134); format: functional, cell-based
# [18] = target: Melanocortin receptor 4 (Homo sapiens, UniProt P32245); format: functional, cell-based;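 also: Cell-based assay with luminescence read-out, confirmatory dose-response testing for agonist activity of biased ligands at MC4R; human U2OS cells with tagged receptor and beta-arrestin; potency of agonists that increase receptor coupling to beta-arrestin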
# [19] = target: T4, Estrogen receptor (Homo sapiens, UniProt P03372);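 also: potency for inhibiting coactivator peptide recruitment to the receptor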
# T4 sequence (P03372 whole entry): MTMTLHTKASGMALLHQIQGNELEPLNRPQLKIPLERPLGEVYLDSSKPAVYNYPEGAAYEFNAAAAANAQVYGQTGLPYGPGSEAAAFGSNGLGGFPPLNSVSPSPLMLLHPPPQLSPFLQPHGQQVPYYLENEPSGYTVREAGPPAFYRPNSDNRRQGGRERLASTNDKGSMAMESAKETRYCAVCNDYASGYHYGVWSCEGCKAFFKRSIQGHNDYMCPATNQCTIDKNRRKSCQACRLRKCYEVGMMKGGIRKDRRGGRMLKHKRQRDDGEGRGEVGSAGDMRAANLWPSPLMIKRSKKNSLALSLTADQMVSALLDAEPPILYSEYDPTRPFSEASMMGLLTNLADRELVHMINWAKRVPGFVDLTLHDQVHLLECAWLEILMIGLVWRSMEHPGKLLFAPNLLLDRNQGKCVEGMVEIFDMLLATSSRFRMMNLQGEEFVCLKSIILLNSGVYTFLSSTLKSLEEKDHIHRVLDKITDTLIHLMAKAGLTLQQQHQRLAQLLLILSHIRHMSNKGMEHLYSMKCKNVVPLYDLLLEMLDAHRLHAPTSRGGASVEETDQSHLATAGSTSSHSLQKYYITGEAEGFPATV
# [20] = target: T5, Estrogen receptor beta (Homo sapiens, UniProt Q92731); test: ERβ–SRC-3 coactivator interaction inhibitors, confirmation, orthogonal assay, biochemical, ELISA, streptavidin-HRP readout (AID 1060)
# [21] = target: T5, Estrogen receptor beta
# [22] = target: E3 ubiquitin-protein ligase XIAP (Homo sapiens, UniProt P98170); test: Counter Screen using XIAP-Bir3 for Chemical Antagonists of Bir1/2 domains of IAP-family anti-apoptotic proteins. [Related pubchem assays (depositor defined):AID1018, AID1449, AID1514, AID1638, AID1749, AID1750, AID488957, AID488963]
# [23] = target: DNA dC->dU-editing enzyme APOBEC-3G (Homo sapiens, UniProt Q9HC16); test: Dose Response confirmation of small molecule APOBEC3G DNA Deaminase Inhibitors via a fluorescence-based single-stranded DNA deaminase assay. [Related pubchem assays (depositor defined):AID493012, AID493028]; format: functional
# [24] = target: DNA dC->dU-editing enzyme APOBEC-3A (Homo sapiens, UniProt P31941); test: APOBEC3A DNA deaminase inhibitors, dose response, biochemical (AID 504722); format: functional
# [25] = target: T6, Leucine aminopeptidase (Plasmodium falciparum 3D7, UniProt Q8IL11); test: P. falciparum M17LAP inhibitors, primary screen, biochemical, fluorogenic H-Leu-NHMec substrate, 1536-well (AID 1619); format: functional
# T6 sequence (Q8IL11 whole entry): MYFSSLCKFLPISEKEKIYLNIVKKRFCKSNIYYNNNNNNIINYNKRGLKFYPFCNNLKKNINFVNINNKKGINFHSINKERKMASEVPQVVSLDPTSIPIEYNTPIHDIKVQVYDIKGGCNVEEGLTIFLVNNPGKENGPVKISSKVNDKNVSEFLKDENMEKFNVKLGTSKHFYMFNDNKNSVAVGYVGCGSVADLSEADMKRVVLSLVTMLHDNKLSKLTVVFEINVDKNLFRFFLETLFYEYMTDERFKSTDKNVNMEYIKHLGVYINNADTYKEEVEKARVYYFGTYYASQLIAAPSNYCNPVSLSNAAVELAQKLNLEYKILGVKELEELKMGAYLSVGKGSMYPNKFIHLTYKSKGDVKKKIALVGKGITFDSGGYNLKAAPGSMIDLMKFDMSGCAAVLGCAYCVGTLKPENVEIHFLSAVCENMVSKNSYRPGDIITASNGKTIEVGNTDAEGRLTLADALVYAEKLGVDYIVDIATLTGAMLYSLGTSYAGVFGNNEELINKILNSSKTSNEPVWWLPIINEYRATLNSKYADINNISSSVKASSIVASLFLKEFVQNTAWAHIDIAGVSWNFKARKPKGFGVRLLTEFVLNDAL
# [26] = target: T7, NADPH oxidase 1 (Homo sapiens, UniProt Q9Y5S8); format: functional, cell-based;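 also: Cell-based assay with luminescence read-out, IC50 derived from inhibitor dose-response curves; intracellular ROS from endogenous NOX1 in intact HT29 colon cancer cells; potency of inhibitors that lower the ROS luminescence signal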
# T7 sequence (Q9Y5S8 whole entry): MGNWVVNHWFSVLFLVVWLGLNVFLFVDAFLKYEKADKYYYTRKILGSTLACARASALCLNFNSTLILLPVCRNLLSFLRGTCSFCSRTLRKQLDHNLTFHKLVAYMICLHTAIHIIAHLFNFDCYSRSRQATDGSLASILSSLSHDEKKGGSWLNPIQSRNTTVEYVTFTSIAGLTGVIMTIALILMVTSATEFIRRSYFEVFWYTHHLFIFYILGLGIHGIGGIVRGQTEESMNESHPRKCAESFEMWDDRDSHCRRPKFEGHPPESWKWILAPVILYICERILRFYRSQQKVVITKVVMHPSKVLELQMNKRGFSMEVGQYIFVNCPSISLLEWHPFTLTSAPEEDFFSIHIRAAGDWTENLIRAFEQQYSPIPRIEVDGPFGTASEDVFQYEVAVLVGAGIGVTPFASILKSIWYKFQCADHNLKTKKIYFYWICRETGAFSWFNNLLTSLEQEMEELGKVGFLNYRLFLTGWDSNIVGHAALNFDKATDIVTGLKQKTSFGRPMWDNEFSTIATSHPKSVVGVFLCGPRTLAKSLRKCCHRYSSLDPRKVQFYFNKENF
# [27] = target: T8, Voltage-gated N-type calcium channel alpha-1B subunit/Amyloid beta A4 precursor protein-binding family A member 1 (Homo sapiens, UniProt Q00975+Q02410); format: protein assay
# [28] = target: T8, Voltage-gated N-type calcium channel alpha-1B subunit/Amyloid beta A4 precursor protein-binding family A member 1; format: protein assay; remark: listed apart in the source
# Mucolipin-3, sequence (Q8TDD5 whole entry): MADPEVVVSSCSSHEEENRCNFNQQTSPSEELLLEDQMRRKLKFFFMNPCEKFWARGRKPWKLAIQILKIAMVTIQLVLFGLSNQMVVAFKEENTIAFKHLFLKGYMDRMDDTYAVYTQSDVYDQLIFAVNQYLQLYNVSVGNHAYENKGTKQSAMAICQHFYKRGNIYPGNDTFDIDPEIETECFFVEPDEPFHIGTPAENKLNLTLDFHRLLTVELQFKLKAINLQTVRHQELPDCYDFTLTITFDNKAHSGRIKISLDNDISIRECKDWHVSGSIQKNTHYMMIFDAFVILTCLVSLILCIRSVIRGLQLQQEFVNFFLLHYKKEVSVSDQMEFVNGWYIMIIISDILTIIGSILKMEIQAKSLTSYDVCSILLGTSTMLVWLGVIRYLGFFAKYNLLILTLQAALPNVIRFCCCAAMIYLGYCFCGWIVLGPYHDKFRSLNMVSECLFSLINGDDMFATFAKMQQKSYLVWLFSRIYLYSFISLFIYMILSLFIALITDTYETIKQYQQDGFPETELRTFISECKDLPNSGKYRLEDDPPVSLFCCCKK
# Scavenger receptor class B member 1, sequence (Q61009 whole entry): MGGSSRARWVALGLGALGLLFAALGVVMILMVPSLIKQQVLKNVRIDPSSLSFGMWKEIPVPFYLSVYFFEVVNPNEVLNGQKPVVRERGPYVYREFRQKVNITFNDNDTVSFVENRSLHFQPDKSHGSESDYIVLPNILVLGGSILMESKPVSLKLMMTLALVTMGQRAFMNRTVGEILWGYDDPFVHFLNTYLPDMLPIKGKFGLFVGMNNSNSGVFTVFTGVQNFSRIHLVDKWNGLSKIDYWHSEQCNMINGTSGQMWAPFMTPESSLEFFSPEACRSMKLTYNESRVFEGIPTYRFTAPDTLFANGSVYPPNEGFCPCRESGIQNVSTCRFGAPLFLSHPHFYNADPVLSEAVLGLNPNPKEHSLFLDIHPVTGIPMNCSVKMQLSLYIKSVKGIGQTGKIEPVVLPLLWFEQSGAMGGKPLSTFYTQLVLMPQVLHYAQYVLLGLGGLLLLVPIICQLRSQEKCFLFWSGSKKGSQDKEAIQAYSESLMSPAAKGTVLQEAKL
# T8 sequence (Q00975 whole entry): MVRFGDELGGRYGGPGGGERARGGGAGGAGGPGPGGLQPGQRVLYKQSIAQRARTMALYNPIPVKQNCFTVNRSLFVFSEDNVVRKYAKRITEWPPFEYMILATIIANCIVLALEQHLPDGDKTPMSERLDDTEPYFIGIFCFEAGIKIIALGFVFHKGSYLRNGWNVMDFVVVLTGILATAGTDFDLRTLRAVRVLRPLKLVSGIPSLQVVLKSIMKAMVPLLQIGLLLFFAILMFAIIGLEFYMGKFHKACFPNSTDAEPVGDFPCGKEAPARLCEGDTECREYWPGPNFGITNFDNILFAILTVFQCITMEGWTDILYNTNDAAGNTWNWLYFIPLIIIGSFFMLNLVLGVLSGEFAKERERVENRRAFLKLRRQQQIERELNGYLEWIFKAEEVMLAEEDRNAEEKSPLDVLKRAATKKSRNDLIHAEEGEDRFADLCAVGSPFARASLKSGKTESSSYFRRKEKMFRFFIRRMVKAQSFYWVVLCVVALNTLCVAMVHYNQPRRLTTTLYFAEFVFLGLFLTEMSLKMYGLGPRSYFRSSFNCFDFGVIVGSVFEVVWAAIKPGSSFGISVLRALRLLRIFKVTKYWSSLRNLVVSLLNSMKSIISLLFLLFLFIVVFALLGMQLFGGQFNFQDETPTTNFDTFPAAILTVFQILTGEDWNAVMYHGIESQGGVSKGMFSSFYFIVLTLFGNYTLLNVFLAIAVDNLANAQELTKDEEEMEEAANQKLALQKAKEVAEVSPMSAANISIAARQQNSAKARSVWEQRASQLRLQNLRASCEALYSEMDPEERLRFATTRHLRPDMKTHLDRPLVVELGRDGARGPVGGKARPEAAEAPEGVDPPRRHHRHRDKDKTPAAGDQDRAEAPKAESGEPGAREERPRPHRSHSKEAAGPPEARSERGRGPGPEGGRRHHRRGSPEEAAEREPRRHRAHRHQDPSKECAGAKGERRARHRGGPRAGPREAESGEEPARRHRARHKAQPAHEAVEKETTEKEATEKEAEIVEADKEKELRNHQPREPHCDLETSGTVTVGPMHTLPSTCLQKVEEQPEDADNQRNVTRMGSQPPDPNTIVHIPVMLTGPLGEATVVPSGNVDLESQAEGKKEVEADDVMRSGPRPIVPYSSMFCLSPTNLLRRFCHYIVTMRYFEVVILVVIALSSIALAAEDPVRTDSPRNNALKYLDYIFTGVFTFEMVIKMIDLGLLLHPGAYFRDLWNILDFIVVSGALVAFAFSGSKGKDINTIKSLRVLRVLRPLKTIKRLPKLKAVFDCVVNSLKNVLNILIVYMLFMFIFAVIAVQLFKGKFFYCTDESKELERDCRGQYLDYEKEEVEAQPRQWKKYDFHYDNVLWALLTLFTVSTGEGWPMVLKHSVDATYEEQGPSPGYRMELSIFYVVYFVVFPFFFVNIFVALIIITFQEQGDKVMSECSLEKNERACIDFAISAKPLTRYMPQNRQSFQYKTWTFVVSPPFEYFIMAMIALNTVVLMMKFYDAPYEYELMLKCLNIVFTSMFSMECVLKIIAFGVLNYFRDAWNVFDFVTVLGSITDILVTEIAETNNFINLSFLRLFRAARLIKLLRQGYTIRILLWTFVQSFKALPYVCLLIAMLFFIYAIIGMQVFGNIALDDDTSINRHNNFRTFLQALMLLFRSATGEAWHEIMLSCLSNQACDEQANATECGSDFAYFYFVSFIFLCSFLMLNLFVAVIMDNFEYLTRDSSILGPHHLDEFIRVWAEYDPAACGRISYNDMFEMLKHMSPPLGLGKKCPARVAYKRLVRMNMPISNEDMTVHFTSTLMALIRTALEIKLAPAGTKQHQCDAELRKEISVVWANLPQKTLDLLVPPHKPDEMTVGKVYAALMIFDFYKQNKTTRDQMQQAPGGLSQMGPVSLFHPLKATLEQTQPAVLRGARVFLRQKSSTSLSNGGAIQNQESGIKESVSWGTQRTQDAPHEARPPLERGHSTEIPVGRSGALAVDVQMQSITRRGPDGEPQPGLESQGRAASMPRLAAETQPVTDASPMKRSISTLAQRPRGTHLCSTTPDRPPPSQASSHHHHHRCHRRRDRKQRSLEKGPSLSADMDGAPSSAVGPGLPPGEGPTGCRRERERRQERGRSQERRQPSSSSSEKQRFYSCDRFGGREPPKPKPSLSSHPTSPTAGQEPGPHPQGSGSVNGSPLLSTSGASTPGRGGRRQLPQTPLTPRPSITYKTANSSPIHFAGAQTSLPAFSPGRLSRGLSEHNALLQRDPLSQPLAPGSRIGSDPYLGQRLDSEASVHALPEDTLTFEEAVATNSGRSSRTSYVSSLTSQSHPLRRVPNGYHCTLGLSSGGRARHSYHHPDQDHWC
# T8 sequence (Q02410 whole entry): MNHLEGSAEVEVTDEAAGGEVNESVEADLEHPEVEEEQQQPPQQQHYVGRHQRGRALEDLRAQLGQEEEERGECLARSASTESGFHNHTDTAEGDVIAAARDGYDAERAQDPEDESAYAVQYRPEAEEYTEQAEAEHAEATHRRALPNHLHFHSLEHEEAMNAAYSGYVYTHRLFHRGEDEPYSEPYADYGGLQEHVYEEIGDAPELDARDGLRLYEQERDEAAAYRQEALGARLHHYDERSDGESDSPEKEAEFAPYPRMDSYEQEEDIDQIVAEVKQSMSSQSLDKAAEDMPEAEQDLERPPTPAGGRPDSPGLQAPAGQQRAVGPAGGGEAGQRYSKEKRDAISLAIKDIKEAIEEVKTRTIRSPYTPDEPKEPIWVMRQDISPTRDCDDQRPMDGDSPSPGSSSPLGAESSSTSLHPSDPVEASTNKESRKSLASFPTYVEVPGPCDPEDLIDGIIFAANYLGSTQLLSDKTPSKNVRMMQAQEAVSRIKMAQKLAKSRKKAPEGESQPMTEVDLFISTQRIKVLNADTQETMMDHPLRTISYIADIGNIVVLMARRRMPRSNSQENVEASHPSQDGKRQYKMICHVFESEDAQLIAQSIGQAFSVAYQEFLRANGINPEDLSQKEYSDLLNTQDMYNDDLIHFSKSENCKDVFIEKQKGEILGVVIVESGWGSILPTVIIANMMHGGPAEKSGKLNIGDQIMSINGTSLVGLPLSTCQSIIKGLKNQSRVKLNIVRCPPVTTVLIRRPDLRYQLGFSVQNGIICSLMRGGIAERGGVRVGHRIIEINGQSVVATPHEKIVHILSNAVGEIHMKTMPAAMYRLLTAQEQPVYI
# T5 sequence (Q92731 whole entry): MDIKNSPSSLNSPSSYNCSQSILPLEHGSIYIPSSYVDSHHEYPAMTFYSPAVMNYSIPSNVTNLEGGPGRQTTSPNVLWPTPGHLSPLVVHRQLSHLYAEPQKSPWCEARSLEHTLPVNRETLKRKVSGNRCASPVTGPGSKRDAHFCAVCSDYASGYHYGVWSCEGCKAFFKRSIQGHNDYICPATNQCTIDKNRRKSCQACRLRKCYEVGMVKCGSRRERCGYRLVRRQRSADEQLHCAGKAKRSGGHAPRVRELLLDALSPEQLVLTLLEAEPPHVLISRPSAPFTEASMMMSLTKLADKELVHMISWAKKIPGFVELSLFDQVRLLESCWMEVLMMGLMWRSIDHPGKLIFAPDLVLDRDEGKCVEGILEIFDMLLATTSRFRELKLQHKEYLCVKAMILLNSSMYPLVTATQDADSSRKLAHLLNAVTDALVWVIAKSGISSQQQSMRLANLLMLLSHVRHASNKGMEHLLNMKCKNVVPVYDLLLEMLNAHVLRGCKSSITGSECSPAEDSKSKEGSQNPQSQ
# Glyceraldehyde-3-phosphate dehydrogenase, sequence (P04406 whole entry): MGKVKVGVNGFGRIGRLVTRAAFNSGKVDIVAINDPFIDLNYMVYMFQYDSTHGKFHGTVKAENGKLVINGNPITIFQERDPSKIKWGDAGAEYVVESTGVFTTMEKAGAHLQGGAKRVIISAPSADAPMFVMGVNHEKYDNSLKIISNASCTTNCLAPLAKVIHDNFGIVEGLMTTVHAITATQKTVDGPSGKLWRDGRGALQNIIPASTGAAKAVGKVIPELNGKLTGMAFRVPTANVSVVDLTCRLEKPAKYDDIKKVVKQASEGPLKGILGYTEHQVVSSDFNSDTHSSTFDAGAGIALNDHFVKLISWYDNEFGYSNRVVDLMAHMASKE
structure (smiles),measurement,setting,value
CCOc1ccccc1N1CCN(S(=O)(=O)c2ccc(Cl)s2)CC1,EC50,[1],> 29.9 µM (not active)
same,EC50,[2],8.16 µM (active)
Cc1ccc(S(=O)(=O)N2C(=S)SCC2(C)C)cc1,EC50,[1],> 29.9 µM (not active)
same,EC50,[2],7.22 µM (active)
O=C1C=CC2=C3Oc4c(ccc5cc(O)ccc45)C(c4ccccc4C(=O)O)C3C=CC2=C1 (stereo not given),EC50,[3],1.68 µM (active)
CCCCCCCCCCCCCCCCCCC#CCCCCCCCCCCCC(=O)O,IC50,[4],28.3 µM (active)
same,IC50,[5],> 100 µM (inactive)
same,IC50,[6],> 100 µM (inactive)
same,IC50,[7],> 100 µM (not active)
CCCCCCN1C(=O)NC(=O)/C(=C\Nc2c(C)n(C)n(-c3ccccc3)c2=O)C1=O,EC50,[8],1.31 µM (active)
same,EC50,[9],> 79.4 µM (not active)
same,EC50,[10],> 79.4 µM (not active)
same,EC50,[11],> 79.4 µM (not active)
O=C(Nc1ccc(Cl)c(Cl)c1)Nc1ccc(N2CCCC2)c(S(=O)(=O)Nc2ccccc2Cl)c1,AC50,[12],5.13 µM (active)
same,EC50,[13],3.8 µM (active)
same,EC50,[14],3.35 µM (active)
same,AC50,[15],11.4 µM (active)
same,AC50,[16],12.7 µM (active)
same,AC50,[17],27 µM (active)
CCN1C(=O)/C(=C2/Sc3ccc(OC)cc3N2C)S/C1=N\c1cccc(O)c1,EC50,[18],> 89.2 µM (inactive)
same,IC50,[19],> 50 µM (not active)
same,IC50,[20],0.0604 µM (not active)
same,IC50,[21],> 50 µM (not active)
O=c1[nH]n(-c2ccc([N+](=O)[O-])cc2)c(=O)c2ccccc12,IC50,[22],> 20 µM (inactive)
CCOc1ccc(N2C(=O)CC(Sc3n[nH]c(-c4ccccc4)n3)C2=O)cc1 (stereo not given),IC50,[23],14 µM (active)
same,IC50,[24],> 100 µM (inactive)
same,IC50,[25],11.1 µM (active)
O=C(Cc1ccccc1)NNC(=O)Cc1ccccc1,IC50,[26],> 17 µM (not active)
Cc1cc(C)nc(/N=C(\N)Nc2cccc(N)c2)n1,EC50,[3],5.45 µM (active)
CN(CCOC(=O)/C=C/c1ccco1)Cc1ccccc1,IC50,[27],29.1 µM (active)
same,IC50,[28],18.5 µM (active)
Cn1c(=O)n(-c2ccc(Cl)cc2)c(=O)n([C@@H](Cc2ccccc2)C(N)=O)c1=O,IC50,[4],> 100 µM (not active)
same,IC50,[5],> 100 µM (inactive)
same,IC50,[6],> 100 µM (inactive)
same,IC50,[7],> 100 µM (not active)
COc1cc(C(=S)N2CCOCC2)cc(OC)c1OC(=O)c1cc([N+](=O)[O-])c(C)c([N+](=O)[O-])c1,EC50,[9],> 79.4 µM (not active)
same,EC50,[10],> 79.4 µM (not active)
same,EC50,[11],> 79.4 µM (not active)
O=C(NNC(=O)c1cc(Br)ccc1O)c1csc(N2CCOCC2)n1,AC50,[16],2.75 µM (active)
CN(C)CCCN1c2ccccc2Sc2ccc(Cl)cc21 [CHLORPROMAZINE],IC50,[26],> 17 µM (not active)
